Measured values: PubChem BioAssay AID179 (DTP/NCI, 2004)
Calls of active or inactive are those of the source.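 Rule for the calls: active = compounds giving half or more protection of infected cells from virus-caused growth loss, again on retest; inactive = the rest.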

Test system: CEM cells HIV-1 protection, formazan growth assay
Experiment: NCI AIDS Antiviral Assay
Conditions: for IC50: measured here: growth of uninfected CEM cells
How it was run: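 Human CEM cells, uninfected and HIV-1-infected, exposed to five drug concentrations; growth measured by soluble formazan assay and scored as percent protection from infection, with protecting compounds retested.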

Structure (SMILES) | EC50 [µM] | IC50 [µM] | outcome
OC1(C#CCN2CCCC2)c2ccccc2Sc2ccccc21.[C-]#[O+].[C-]#[O+].[C-]#[O+].[C-]#[O+].[C-]#[O+].[C-]#[O+].[Co].[Co] | > 200 | 4.17 | –
O=C1CCCC/C1=C(\Br)I | – | – | inactive
CC1=NNC(=O)C1C1CC(c2c[nH]c3ccccc23)=Nn2c(-c3ccccc3)nnc21 (stereo unspecified) | > 100 | 32.4 | –
COc1ccc(C=C2C(=O)OC(C)(C)OC2=O)cc1OC | > 170 | > 170 | –
NCCNCCN1C(=O)c2cccc3cccc(c23)C1=O | > 200 | 7.59 | –
O=S1(=O)CC2(N3CCOCC3)CCCCC21 (stereo unspecified) | > 1020 | > 1020 | –
CCCCCCCCCCCCCCCCN1C(=O)/C(=C\c2ccc(O)cc2)SC1=Nc1ccccc1 | > 44.7 | > 44.7 | –
Cc1sccc1C(=S)Nc1ccc(Cl)c(/C=N/OC(C)(C)C)c1 | 14.1 | 14.8 | –
CCCCCCCCCCCCCCCCOCC(Cl)COP(=O)(O)OP(=O)(O)OCC1OC(n2cc(C)c(=O)[nH]c2=O)CC1O (stereo unspecified) | > 145 | 123 | –
Nc1onc2c1Cc1c(noc1N)-c1ccccc1-2 | > 200 | 166 | –
CC(=O)C(=[N+]=[N-])C(=O)OC(C)(C)C#N | > 200 | > 200 | –
N/N=C(\c1nc2ccc([N+](=O)[O-])cc2[nH]c1=O)C(O)c1ccc(Cl)c(Cl)c1 (stereo unspecified) | > 339 | 145 | –
Cn1c(=O)c2c(ncn2CCCCOc2ccc3c(c2)[n+]([O-])nc(N)[n+]3[O-])n(C)c1=O | > 200 | 23.4 | –
O=C1NC(=O)C2(CCCCCC2)N1 | > 200 | > 200 | –
O=S(=O)(O)c1cc(N=Nc2cc(S(=O)(=O)O)c3cccnc3c2O)ccc1/C=C/c1ccc(N=Nc2cc(S(=O)(=O)O)c3cccnc3c2O)cc1S(=O)(=O)O (tested in a mixture with another compound) | 2.95 | 50.1 | –
Clc1ccc(Nc2nc(Cl)c3[nH]cnc3n2)cc1Cl | > 200 | 63.1 | –
Nc1cccc(OCC2CCCN3CCCCC23)c1 (stereo unspecified) | > 200 | 13.8 | –
COc1c2occc2c(Cl)c2ccc(=O)oc12 | > 70.8 | 43.7 | –
NC(N)=N/N=C(/CCN1CCCC1)CC(c1ccccc1)c1c(O)c2ccccc2oc1=O (stereo unspecified) | > 38.9 | > 38.9 | –
c1ccc2c3nc4ccccc4c-3scc2c1 | > 56.2 | 6.46 | –
C/C(=N\O)C(CN1CCCCC1)C(c1ccccc1)c1c(O)c2ccccc2oc1=O (stereo unspecified) | > 29.5 | > 29.5 | –
C=C(COC(=O)CC(C)(C)CC(=O)O)[C@@H]1CC[C@]2(COC(=O)CC(C)(C)CC(=O)O)CC[C@]3(C)[C@H](CC[C@@H]4[C@@]5(C)CC[C@H](OC(=O)CC(C)(C)CC(=O)O)C(C)(C)[C@@H]5CC[C@]43C)[C@@H]12 | > 200 | 24.5 | –

Structure (SMILES) | EC50 [µM] | IC50 [µM] | outcome
O=C(c1ccc(Br)cc1)n1c2ccc(Br)cc2c2nc3ccccc3nc21 | > 50.1 | > 50.1 | –
O=C(Cc1nc2ccccc2o1)C(=O)Nc1cccc(C(F)(F)F)c1 | – | – | inactive
Clc1cc2ncn(C3CCCCO3)c2cc1Cl (stereo unspecified) | > 200 | 45.7 | –
Cc1nc2cc(F)c(F)cc2[nH]c1=O | > 200 | 174 | –
C[C@H]1CC[P+](Cc2ccccc2)(c2ccccc2)C1 (stereo partly specified) | > 708 | 33.1 | –
COC1CC(OC2C(C)OC(OC3C(C)OC(OC4C(O)CC(O[C@H]5CC[C@@]6(C)C(=CC[C@]7(O)[C@@H]6C[C@@H](OC(=O)/C=C/c6ccccc6)[C@@]6(C)[C@]7(O)CC[C@@]6(O)C(C)=O)C5)OC4C)CC3OC)CC2OC)OC(C)C1O (stereo partly specified) | > 200 | 37.2 | –
CC1(C)COC(=O)N1 | > 1550 | > 1550 | –
N=c1nnc(=O)c2c(s1)-n1ncc(C(=O)O)c1NN2 | > 81.3 | > 81.3 | –
CCCCCCCCCCCCCCCCNCCCS(=O)(=O)O | > 200 | 3.89 | –
Cc1cc2c(C)c(-c3ccccc3)c(=O)oc2c(C#N)c1C | > 200 | 170 | –
C/C=C/c1cc(=O)c([C@@H]2OC(=O)c3cc(OC)cc(OC)c32)co1 | > 200 | 83.2 | –
COCN1C(=O)[C@@H]2CCCN2C(=O)c2ccc(Cl)cc21 | > 200 | > 200 | –
O=C(O)c1c[nH]c2cc(O)ccc2c1=O | > 200 | > 200 | –
CSSCc1ccccc1 | > 200 | 19.1 | –
COc1cc2c(cc1OC)C(=O)N1CSCC1C(=O)S2 (stereo unspecified) | > 50.1 | > 50.1 | –
CC(=O)Nc1cc2ccc(C)nc2c2nc(C)ccc12 | > 200 | > 200 | –
O=Nc1ccc(O)c2ncccc12 | – | – | inactive
O=C1C(=C2SC(c3ccccc3)(c3ccccc3)c3ccccc32)C(=O)c2ccccc21 | > 200 | > 200 | –
CCN(CCCN(CC)C(=O)Nc1ccccc1)C(=O)Nc1ccccc1 | > 200 | 155 | –
CC(=O)OC1C(OC(C)=O)[C@@]2(C)C(C(O)[C@@H]3C2C(C)C=C2OC(=O)[C@@](C)(O)[C@@]23C)[C@H]2C1[C@]1(C)C(C[C@@H]3O[C@@H]3C1OC(C)=O)C(=O)[C@@H]2O (stereo partly specified) | – | – | inactive
CC(C)CCn1c(=O)c2c(=O)[nH][nH]c2c2ccccc21 | > 200 | > 200 | –
CCC(C)[C@@H](NCc1ccccc1)[C@H](OCc1ccccc1)[C@@H]1COC(C)(C)O1 (stereo partly specified) | > 200 | 22.4 | –

Structure (SMILES) | EC50 [µM] | IC50 [µM] | outcome
CC(CN1CCCCC1)SSC(C)CN1CCCCC1 (stereo unspecified) | > 200 | 24 | –
O=C1NC(=O)C(c2ccccc2)(c2ccccc2)N1 | > 372 | > 372 | –
O[C@H]1[C@H]2c3cc4c(cc3CN3CCC(=C[C@@H]1O)[C@H]23)OCO4 | > 2 | 0.372 | –
CCOC(=O)c1ccc(N=NC2Sc3nc4ccccc4n3C2=O)cc1 (stereo unspecified) | – | – | inactive
Cn1c2ccccc2c2cc(-c3ccccc3)c3c(c21)C(=O)c1ccccc1C3=O | > 13.5 | > 13.5 | –
Cc1ccc(S(=O)OCc2c(C)c(C)c(COS(=O)c3ccc(C)cc3)c(C)c2C)cc1 (stereo unspecified) | – | – | inactive
O=C1OC(C(O)CO)C(O)=C1Nc1ccc(S(=O)(=O)c2ncc(NC3=C(O)C(C(O)CO)OC3=O)s2)cc1 (stereo unspecified) | > 200 | 21.9 | –
Cc1oc(N)c(S(=O)(=O)c2cc3ccccc3n(O)c2=N)c1C | > 200 | 95.5 | –
CC(NNC(=O)c1ccncc1)c1ccc(F)cc1 (stereo unspecified) | > 200 | 12.3 | –
CC1CC2Oc3ccc(Cl)cc3C(=O)N2O1 (stereo unspecified) | > 200 | > 200 | –
COc1ccc(N2C(=O)C3CC(c4ccc(C)cc4)c4c([nH]c5ccccc45)C3C2=O)cc1 (stereo unspecified) | > 2.4 | > 2.4 | –
CN(C)c1ccc(C=C2C(=O)N(c3ccccc3)N(c3ccccc3)C2=O)cc1 | > 100 | 69.2 | –
COc1cc(/C=C/C(C)=O)ccc1OP(=O)(O)O | > 200 | > 200 | –
Cc1cc(Br)cc(C)c1NC(=O)C(=O)C(C(=O)c1ccncc1)C1OC(=O)c2ccccc21 (stereo unspecified) | > 339 | > 339 | –
O=C(O)CCc1nn2c(nc1=O)sc1ccc3ccccc3c12 | > 50.1 | > 50.1 | –
CCCCCCc1ccc(C(=O)NO)cc1 | > 200 | 91.2 | –
CCN(CC)C(=O)CCn1cc(F)c(=O)[nH]c1=O | > 977 | > 977 | –
Cc1c(Cl)ccc2c1NC(=O)C2(O)CC(=O)c1ccc(Cl)cc1 (stereo unspecified) | > 31.6 | > 31.6 | –
CSc1nc(C)c(CCCl)c(Cl)n1 | – | – | inactive
O=C1Nc2c(ccc(Cl)c2I)C1=O | > 162 | 30.9 | –
CC(=O)OC12c3ccccc3-c3ccccc3C1C1C(=O)N(C)C(=O)C12Cl (stereo unspecified) | > 67.6 | > 67.6 | –
COc1ccc2cc1Oc1ccc(cc1)CC1c3cc4c(cc3CCN1C)Oc1c(OC)cc3c(c1O4)C(C2)N(C)CC3 (stereo unspecified) | – | – | inactive

Structure (SMILES) | EC50 [µM] | IC50 [µM] | outcome
COc1ccc(NC(=O)C2C(=O)N(c3ccc(OC)cc3)C(=O)/C2=N\NC(N)=O)cc1 (stereo unspecified) | > 61.7 | > 61.7 | –
Cn1cnc([N+](=O)[O-])c1Sc1nc2cc(Cl)c(F)cc2[nH]1 | > 8.32 | 3.09 | –
CCN(CC)C(=O)Cc1[nH][nH]c(=O)c1C(=O)N(CC)CC | > 851 | > 851 | –
COc1cccc2c(Nc3ccc(S(=O)(=O)Nc4ncccn4)cc3)c3ccc([N+](=O)[O-])cc3nc12 | > 100 | > 100 | –
COC(=O)c1c/c(=N\NC(=O)CC(=O)Nc2ccccc2OC)c2ccccc2o1 | > 229 | > 229 | –
Cn1c(=O)c2nc3c(=O)n(C)c(=O)n(C)c3nc2n(C)c1=O | > 200 | 79.4 | –
O=C(CC(C(=O)c1cccs1)c1ccsc1)c1cccs1 (stereo unspecified) | > 200 | 40.7 | –
CCCCCC(Nc1nncs1)Nc1nncs1 | > 200 | > 200 | –
CSC(=S)OC1C(CO[Si](C)(C)C(C)(C)C)OC2OC(C)(C)OC21 (stereo unspecified) | – | – | inactive
CO/N=C\c1c2c(O)c3c(O)c(C)c4c(c3c1O)C(=O)C(C)(O/C=C\C(OC)C(C)C(OC(C)=O)C(C)C(O)C(C)C(O)C(C)/C=C\C=C(\C)C(=O)N2)O4 (stereo unspecified) | > 151 | 15.8 | –
Nc1nnn(N)n1 | > 200 | > 200 | –
O=C1[C@H]2C(c3ccccc3)=NN(C(=O)c3ccccc3)[C@H]2C(=O)N1c1ccccc1 | – | – | inactive
Clc1nc(Nc2nc3ccccc3[nH]2)nc(Cl)c1-c1ccccc1 | – | – | inactive
O=C1C(SCCO)=C(SCCO)C(=O)c2[nH]cnc21 | > 437 | 42.7 | –
COc1cc2c(cc1OC)C1=Cc3cc(OC)c(OC)cc3C(C)N1C=C2 (stereo unspecified) | > 355 | 29.5 | –
CC(C)=CCC/C(C)=C/CC/C(C)=C/OP(=O)(O)OP(=O)(O)O | > 162 | > 162 | –
CC(=N)OC1CC2CCC1(C)C2(C)C (stereo unspecified) | > 200 | > 200 | –
CCN(CC)C(=S)SCn1ncc2ccc([N+](=O)[O-])cc21 | > 107 | 10 | –
CCOC(=O)C(NC(=O)c1ccccc1)(Nc1cc(C)on1)C(F)(F)F (stereo unspecified) | > 200 | > 200 | –
CCOCC(=O)N[C@H]1CCc2cc(OC)c(OC)c(OC)c2-c2ccc(OC)c(=O)cc21 | > 2 | 0.00347 | –
